Results reported in the NIST ThermoML archive (doi:10.1016/j.jct.2005.03.012).

Experiment: molar heat capacity at constant pressure
Conditions: Liquid, Flow calorimetry

CO [methanol]
molar heat capacity at constant pressure [J/K/mol]
Conditions	248.15 K	273.15 K	298.15 K	323.15 K	348.15 K	373.15 K	398.15 K	423.15 K	473.15 K
500 kPa	74.02	77.03	81.39	86.87	93.66	101.83	–	–	–
1000 kPa	74.02	77	81.35	86.8	93.59	101.76	111.86	–	–
2500 kPa	73.95	76.93	81.19	86.64	93.43	101.41	111.28	122.98	–
5000 kPa	73.89	76.84	81.07	86.45	93.18	101	110.38	121.41	162.32
7500 kPa	73.79	76.8	81.03	86.29	92.92	100.64	109.58	120.03	152.94
10000 kPa	73.79	76.77	80.91	86.13	92.73	100.23	108.97	118.84	146.91
12500 kPa	73.76	76.74	80.91	86	92.41	99.97	108.33	117.85	142.75
